Results published in ChEMBL document CHEMBL2346530, “Discovery of non-peptide inhibitors of Plasmepsin II by structure-based virtual screening” (Bioorg Med Chem Lett, 2013).

Assays:
Plasmepsin II = Plasmepsin II (Plasmodium falciparum, UniProt P46925); assay: Inhibition of recombinant Plasmodium falciparum plasmepsin 2 expressed in Escherichia coli using DABCYL-Glu-Arg-Nle-Phe-Leu-Ser-Phe-Pro-EDANS as substrate incubated for 40 mins prior to substrate addition measured after 10 mins by FRET-based fluorometric analysis
Sequence of Plasmepsin II (P46925 whole entry): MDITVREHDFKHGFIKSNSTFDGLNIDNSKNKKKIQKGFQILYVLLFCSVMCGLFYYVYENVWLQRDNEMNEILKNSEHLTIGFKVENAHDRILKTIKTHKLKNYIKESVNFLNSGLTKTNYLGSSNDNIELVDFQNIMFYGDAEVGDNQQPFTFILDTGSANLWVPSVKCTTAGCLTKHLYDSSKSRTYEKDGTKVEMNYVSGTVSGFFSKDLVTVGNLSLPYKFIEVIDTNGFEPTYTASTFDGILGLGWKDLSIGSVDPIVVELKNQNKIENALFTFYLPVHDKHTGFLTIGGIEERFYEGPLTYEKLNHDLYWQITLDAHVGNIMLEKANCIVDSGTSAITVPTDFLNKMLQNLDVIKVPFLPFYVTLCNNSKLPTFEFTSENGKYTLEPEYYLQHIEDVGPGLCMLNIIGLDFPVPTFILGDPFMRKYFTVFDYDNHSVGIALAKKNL

[1] = target: Plasmepsin II (Plasmodium falciparum) (UniProt P46925); assay: Inhibition of recombinant Plasmodium falciparum plasmepsin 2 expressed in Escherichia coli using DABCYL-Glu-Arg-Nle-Phe-Leu-Ser-Phe-Pro-EDANS as substrate at 10 uM incubated for 40 mins prior to substrate addition measured after 10 mins by FRET-based fluorometric analysis
Sequence of Plasmepsin II (Plasmodium falciparum) (P46925 125-453 limits assumed): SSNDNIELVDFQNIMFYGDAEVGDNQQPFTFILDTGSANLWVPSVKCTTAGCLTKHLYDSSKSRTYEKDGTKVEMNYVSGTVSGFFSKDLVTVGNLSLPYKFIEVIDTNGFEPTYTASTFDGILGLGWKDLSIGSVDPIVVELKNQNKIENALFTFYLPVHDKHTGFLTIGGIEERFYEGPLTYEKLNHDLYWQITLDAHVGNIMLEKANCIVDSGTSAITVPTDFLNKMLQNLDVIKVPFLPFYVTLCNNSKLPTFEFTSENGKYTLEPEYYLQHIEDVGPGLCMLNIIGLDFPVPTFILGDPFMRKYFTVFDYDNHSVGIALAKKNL

OC(CNCc1ccccc1)Cn1c2ccc(Cl)cc2c2cc(Cl)ccc21 (stereo not given)
IC50 (Plasmepsin II): 9.47 µM | inhibition [1]: 52%

N=C(S)NN/C(=C\c1nc(-c2ccccn2)cc2ccccc12)c1ccc(Cl)cc1
IC50 (Plasmepsin II): 6.45 µM | inhibition [1]: 55%

Cc1ccccc1N/C(=N\N=C/c1ccc2ccc3ccc(/C=N\N=C(/Nc4ccccc4C)c4ccccn4)nc3c2n1)c1ccccn1
IC50 (Plasmepsin II): 4.62 µM | inhibition [1]: 67.7%

O=C(CN(c1cccc(Br)c1)S(=O)(=O)c1ccccc1)Nc1ccc(CSc2ccccc2)cc1
IC50 (Plasmepsin II): 8.99 µM | inhibition [1]: 54.7%

Cc1ccc(S(=O)(=O)Nc2ccccc2CNc2cnc3ccccc3c2)cc1
IC50 (Plasmepsin II): 7 µM | inhibition [1]: 60.6%
